Consider 16 compounds from patent publication US9029405B2, “5-(biphenyl-4-yl)-3-phenyl-1,2,4-oxadiazolyl derivatives as ligands on the sphingosine 1-phosphate(SIP)receptors” (Merck Serono S.A., priority 2010, dated 2015).

A word on the Ki: it is the equilibrium dissociation constant of an inhibitor or competing ligand from its target. The EC50 is the concentration needed to bring the measured effect to its halfway point. High values mean lower potency in that assay, low ones higher potency in that assay.

Where a name gives a salt, the structure may show the parent alone. Read-outs that look alike come from different tables or passages of the source. Some results are limits rather than exact numbers.

One assay deals with S1P3 (Homo sapiens, UniProt Q99500). Nature of the assay: Receptor binding assay, [33P]sphingosine 1-phosphate competition, membranes of CHO cells expressing S1P3. The method, then:
(§1) Membranes were prepared from CHO cells expressing S1P1 or S1P3 for use in ligand binding studies. Cells were suspended in 50 mM TRIS, pH 7.4, 2 mM EDTA, 250 mM Sucrose (buffer A) and 1× Complete protease inhibitor cocktail (Roche), and disrupted at 4° C. by N2 decompression using a cell disruption bomb (Parr Instrument). Following centrifugation at 1000 RPM for 10 min at 4° C., the supernatant was diluted (2×) in buffer A and centrifuged again at 19000 RPM for 75 min at 4° C. The pellet was then suspended in 10 mM HEPES, pH 7.4, 1 mM EDTA, 250 mM Sucrose (Buffer B), and 1× Complete EDTA-free protease inhibitor cocktail and homogenized using a potter. Membranes were flash frozen in liquid N2 and stored at −80° C.
(§2) [33P]sphingosine 1-phosphate (3000 Ci/mmol; American Radiolabeled Chemicals, Inc.) was added to test compounds in 20% DMSO by competition. Membranes and WGA SPA beads (GE Healthcare) were added to give a final volume of 100 μl in 96-well plates or 50 μl in 384-well plates with assay concentrations of 30 pM or 15 pM [33P]sphingosine 1-phosphate (respectively for S1P1 or S1P3), 50 mM HEPES, pH 7.5, 5 mM MgCl2, 100 mM NaCl, 0.4% fatty acid-free BSA, 1-5 μg/well of proteins in 96-well plates vs 0.6-1 μg/well of proteins in 384-well plates and 100 μg/well of WGA SPA beads in 96-well plates vs 75 μg/well of WGA SPA beads in 384-well plates. Binding was performed for 60 min at RT on a shaker and bound radioactivity was measured on a PerkinElmer 1450 MicroBeta counter. Triplicate samples were averaged and normalized as percentage of inhibition relative to total binding (only DMSO in well) and non specific binding (1000-fold excess of unlabeled S1P). Binding data were analyzed using the GraphPad Prism program or Genedata software.
(§3) The “potency” or the “activity” of the compounds is determined by the Ki values as evaluated in one of the above described binding assay, 96 or 384 well plates.

For assay [1], the target named is T1, S1P1 (Homo sapiens, UniProt P21453). Nature of the assay: Receptor binding assay, [33P]sphingosine 1-phosphate competition, membranes of CHO cells expressing S1P1. The method, then:
as §1, §2, §3
Target sequence in this assay (P21453 whole entry, species assumed): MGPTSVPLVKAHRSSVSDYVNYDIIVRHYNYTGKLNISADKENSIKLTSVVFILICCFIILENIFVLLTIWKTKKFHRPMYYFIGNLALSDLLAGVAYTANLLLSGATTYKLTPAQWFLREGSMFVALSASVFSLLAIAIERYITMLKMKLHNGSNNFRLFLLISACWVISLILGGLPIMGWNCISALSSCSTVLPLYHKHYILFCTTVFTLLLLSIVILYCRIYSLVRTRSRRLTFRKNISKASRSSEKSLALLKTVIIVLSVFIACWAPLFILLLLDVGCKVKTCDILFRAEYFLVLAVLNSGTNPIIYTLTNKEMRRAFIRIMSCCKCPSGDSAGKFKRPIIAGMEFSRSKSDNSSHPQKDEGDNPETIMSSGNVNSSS

Assay [2] has as its target T1, S1P1. Nature of the assay: S1P1 internalization assay in S1P1-U2OS cells (cell imaging). Also noted: host or cells: U2OS (human bone osteosarcoma epithelial cells). It counts as cell-based. The following applies: U2OS cells expressing S1P1-EGFP, 384-well format. As to the method:
Cellular Functional Assays: Internalization of Sphinqosine-1-phosphate Receptor 1 (S1P1) in a Human Cell Line (U2OS) in a 384-Well Format Using a Cell Imaging Analysis.
The S1P1 internalization assay was performed in 384 well plates (Corning 384 black with clear bottom 3712) using S1P1-U2OS cells from BioImage (C039A), a human epithelial cell line (Human Bone Osteosarcoma Epithelial Cells). These cells expressed the human S1P1 Receptor fused to the green fluorescent protein (EGFP). A standard CMV promoter (cytomegalovirus promoter) controls the expression of S1P1-EGFP and continuous expression was maintained by addition of geneticin to the culture medium.
S1P1 Receptor desensitization induced the internalization of the membrane-localized S1P-EGFP fusion protein to endosomes, which can be monitored by cell imaging analysis.
The cells are plated in low serum medium (Dulbecco's Modified Eagle Medium (DMEM) with Glutamax-1 and high glucose, 1% Penicillin/Streptomycin, 1% Fetal Calf Serum (FCS), 0.5 mg/ml Geneticin) overnight.
The next day, S1P1-U2OS cells are incubated in 20 μl serum free medium (DMEM with Glutamax-1 and high glucose, 0.1% of fatty-acid free Bovin Serum Albumin (BSA), 10 mM, N′-2-Hydroxyethylpiperazine-N′-2 ethanesulphonic acid (HEPES) 1M) for 2 hours at 37° C./5% CO2. The cells are then treated with 4 μl compounds/agonists (6×/3% DMSO) for a total volume of 24 μl, and plates are incubated for 1 hour at 37° C./5% CO2.
S1P1-U2OS cells are fixed with 25 μl Paraformaldehyde 8% and stained with Hoechst 33345 dye (1:1000) for 20 minutes.
They were then washed 3 times with Phosphate Buffered Saline (PBS) and plates are sealed. The internalization of the receptor S1P1-EGFP is measured on Cellomics by calculating the “spot count per object” (“object” corresponds to nuclear and “spot” corresponds to S1P1-EGFP receptor). Internalization data were observed thanks to vHCS View and analyzed using Genedata® software.
Target sequence in this assay (P21453 whole entry): as the sequence (P21453 whole entry, species assumed) above

Setting [3] is: 384 well plate, read-out: S1P3 Binding Ki [M] (384 well plate).
[4] abbreviates: 384 well plate, read-out: S1P1 Binding Ki [M] (384 well plate).
Where [5] appears, read: 96 well plate, read-out: S1P3 Binding Ki [M] (96 well plate).
The mark [6] stands for this setting: 96 well plate, read-out: S1P1 Binding Ki [M] (96 well plate).

Sequence of S1P3 (Q99500 whole entry, species assumed): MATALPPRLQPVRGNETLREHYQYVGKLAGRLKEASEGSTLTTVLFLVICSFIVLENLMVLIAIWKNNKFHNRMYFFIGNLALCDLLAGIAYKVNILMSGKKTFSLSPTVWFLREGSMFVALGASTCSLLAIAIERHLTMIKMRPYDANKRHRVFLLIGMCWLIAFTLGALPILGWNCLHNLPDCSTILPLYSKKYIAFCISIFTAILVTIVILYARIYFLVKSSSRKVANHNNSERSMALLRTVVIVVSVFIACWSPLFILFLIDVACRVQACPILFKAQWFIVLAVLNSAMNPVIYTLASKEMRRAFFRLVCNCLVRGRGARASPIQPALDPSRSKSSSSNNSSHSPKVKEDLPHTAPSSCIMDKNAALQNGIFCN

As for `Cc1ccccc1-c1ccc(-c2nc(-c3ccc(CN(C)[C@H](C(=O)O)C(C)C)c(F)c3)no2)cc1C(F)(F)F` [Example 13, N-(2-fluoro-4-{5-[2′-methyl-2-(trifluoromethyl)biphenyl-4-yl]-1,2,4-oxadiazol-3-yl}benzyl)-N-methylvaline, hydrochloride salt], the inhibitory constant (Ki) at S1P3 (setting [3]) came out at 1.53e-06 M; at S1P1 [1] (setting [4]), 5.23e-09 M. This compound also yielded a 50% effective concentration (EC50) at S1P1 [2] of 283 nM.
The like results for `Cc1cc(-c2nc(-c3ccc(C(C)N(C)CC(=O)O)cc3)no2)ccc1-c1ccccc1C(F)(F)F` (stereo not shown) [Example 14, N-methyl-N-[1-(4-{5-[2-methyl-2′-(trifluoromethyl)biphenyl-4-yl]-1,2,4-oxadiazol-3-yl}phenyl)ethyl]glycine, hydrochloride salt] were, in that order, over 2e-05 M, 4.78e-09 M and 86.2 nM.
The like results for `COCc1cc(-c2nc(-c3ccc(C(C)N(C)CC(=O)O)cc3)no2)ccc1-c1ccccc1C` (stereo not shown) [Example 15, N-[1-(4-{5-[2-(methoxymethyl)-2′-methylbiphenyl-4-yl]-1,2,4-oxadiazol-3-yl}phenyl)ethyl]-N-methylglycine, hydrochloride salt] were, in that order, 5.68e-07 M, 1.98e-09 M and 89.3 nM.
On to `COCc1cc(-c2nc(-c3ccc(CNC(C)(C)C(=O)O)c(F)c3)no2)ccc1-c1ccccc1C` [Example 16, N-(2-fluoro-4-{5-[2-(methoxymethyl)-2′-methylbiphenyl-4-yl]-1,2,4-oxadiazol-3-yl}benzyl)-2-methylalanine, hydrochloride salt], for which the Ki worked out at 7.2e-07 M on S1P3 (setting [3]) and 1.23e-09 M at S1P1 [1] (setting [4]). Further, on S1P1 [2], the midpoint of the response, the EC50, lay at 8.43 nM.
The like results for `Cc1ccccc1-c1ccc(-c2nc(-c3ccc([C@H](C)N[C@H](C)C(=O)O)cc3)no2)cc1C(F)(F)F` [Example 17, N-[(1S)-1-(4-{5-[2′-methyl-2-(trifluoromethyl)biphenyl-4-yl]-1,2,4-oxadiazol-3-yl}phenyl)ethyl]-D-alanine, hydrochloride salt] were, in that order, 2.25e-06 M, 2.01e-09 M and 21 nM.
For `Cc1ccccc1-c1ccc(-c2nc(-c3ccc([C@H](C)N[C@@H](C)C(=O)O)cc3)no2)cc1C(F)(F)F` [Example 18, N-[(1S)-1-(4-{5-[2′-methyl-2-(trifluoromethyl)biphenyl-4-yl]-1,2,4-oxadiazol-3-yl}phenyl)ethyl]-L-alanine, hydrochloride salt], the figures for the Ki on S1P3 (setting [3]) and on S1P1 [1] (setting [4]) were 3.65e-06 M and 1.03e-08 M, respectively. Also, it took 116 nM to reach a half-maximal effect at S1P1 [2] (EC50).
Consider `Cc1ccccc1-c1ccc(-c2nc(-c3ccc([C@@H](C)N[C@@H](C)C(=O)O)cc3)no2)cc1C(F)(F)F` [Example 19, N-[(1R)-1-(4-{5-[2′-methyl-2-(trifluoromethyl)biphenyl-4-yl]-1,2,4-oxadiazol-3-yl}phenyl)ethyl]-L-alanine, hydrochloride salt], for which the Ki was 2.56e-06 M on S1P3 (setting [3]) and 3.98e-09 M on S1P1 [1] (setting [4]). Also, at S1P1 [2], the EC50 was determined as 45.6 nM.
With `Cc1ccccc1-c1ccc(-c2nc(-c3ccc([C@@H](C)N[C@H](C)C(=O)O)cc3)no2)cc1C(F)(F)F` [Example 20, N-[(1R)-1-(4-{5-[2′-methyl-2-(trifluoromethyl)biphenyl-4-yl]-1,2,4-oxadiazol-3-yl}phenyl)ethyl]-D-alanine, hydrochloride salt], the inhibition constant Ki turned out to be 6.83e-06 M at S1P3 (setting [5]), 2.27e-06 M on S1P3 (setting [3]), 8.67e-10 M on S1P1 [1] (setting [6]) and 1.63e-09 M at S1P1 [1] (setting [4]). On S1P1 [2], a half-maximal effect (EC50) was put at 7.57 nM.
In the case of `Cc1ccccc1-c1ccc(-c2nc(-c3ccc([C@H](C)NCC(=O)O)cc3)no2)cc1C(F)(F)F` [Example 21, N-[(1S)-1-(4-{5-[2′-methyl-2-(trifluoromethyl)biphenyl-4-yl]-1,2,4-oxadiazol-3-yl}phenyl)ethyl]glycine, hydrochloride salt], the Ki at S1P3 (setting [3]) was found to be 1.21e-06 M; at S1P1 [1] (setting [4]), 2.19e-09 M. Also, the concentration for a half-maximal effect (EC50) at S1P1 [2] came out at 11.2 nM.
With `Cc1ccccc1-c1ccc(-c2nc(-c3ccc([C@@H](C)NCC(=O)O)cc3)no2)cc1C(F)(F)F` [Example 22, N-[(1R)-1-(4-{5-[2′-methyl-2-(trifluoromethyl)biphenyl-4-yl]-1,2,4-oxadiazol-3-yl}phenyl)ethyl]glycine, hydrochloride salt], the inhibition constant Ki at S1P3 (setting [5]) was determined as 5.98e-07 M; on S1P3 (setting [3]), 4.7e-07 M; on S1P1 [1] (setting [6]), 4.14e-10 M; at S1P1 [1] (setting [4]), 1.72e-09 M. Moreover, a half-maximal response on S1P1 [2] (EC50) required 6.51 nM.
As for `Cc1cc(-c2nc(-c3ccc(C(C)NCC(=O)O)cc3)no2)ccc1-c1ccccc1C(F)(F)F` (stereo not shown) [Example 23, N-[1-(4-{5-[2-methyl-2′-(trifluoromethyl)biphenyl-4-yl]-1,2,4-oxadiazol-3-yl}phenyl)ethyl]glycine, hydrochloride salt], the inhibitory constant (Ki) on S1P3 (setting [3]) is 7.05e-06 M; at S1P1 [1] (setting [4]) it was 1.71e-09 M. The compound further gave an EC50 on S1P1 [2] of 21.3 nM.
The like results for `Cc1ccccc1-c1ccc(-c2nc(-c3cccc(C(C)N(C)[C@@H](C)C(=O)O)c3)no2)cc1C(F)(F)F` (stereo partly shown) [Example 29, N-methyl-N-[1-(3-{5-[2′-methyl-2-(trifluoromethyl)biphenyl-4-yl]-1,2,4-oxadiazol-3-yl}phenyl)ethyl]alanine, hydrochloride salt] were, in that order, 5.84e-08 M, 5.95e-10 M and 46 nM.
`Cc1ccccc1-c1ccc(-c2nc(-c3ccc(C(C)NCC(=O)O)cc3)no2)cc1C(F)(F)F` (stereo not shown) [Example 32, N-[1-(4-{5-[2′-methyl-2-(trifluoromethyl)biphenyl-4-yl]-1,2,4-oxadiazol-3-yl}phenyl)ethyl]glycine, hydrochloride salt]: the results for the Ki on S1P3 (setting [3]) and at S1P1 [1] (setting [4]) were 4.33e-07 M and 1.69e-09 M, respectively. This compound had an EC50 on S1P1 [2] of 7.58 nM.
Taken in the same sequence, the figures for `Cc1ccccc1-c1ccc(-c2nc(-c3ccc([C@H](C)N(C)CC(=O)O)cc3)no2)cc1C(F)(F)F` [Example 34, N-methyl-N-[(1S)-1-(4-{5-[2′-methyl-2-(trifluoromethyl)biphenyl-4-yl]-1,2,4-oxadiazol-3-yl}phenyl)ethyl]glycine, hydrochloride salt] were 6e-06 M, 4.47e-09 M and 26.3 nM.
Taken in the same sequence, the figures for `Cc1ccccc1-c1ccc(-c2nc(-c3ccc([C@@H](C)N(C)CC(=O)O)cc3)no2)cc1C(F)(F)F` [Example 36, N-methyl-N-[(1R)-1-(4-{5-[2′-methyl-2-(trifluoromethyl)biphenyl-4-yl]-1,2,4-oxadiazol-3-yl}phenyl)ethyl]glycine, hydrochloride salt] were 7.93e-07 M, 2.55e-09 M and 33.6 nM.
The like results for `COCc1cc(-c2nc(-c3ccc(C(C)N(C)[C@@H](C)C(=O)O)cc3)no2)ccc1-c1ccccc1C` (stereo partly shown) [Example 37, N-[1-(4-{5-[2-(methoxymethyl)-2′-methylbiphenyl-4-yl]-1,2,4-oxadiazol-3-yl}phenyl)ethyl]-N-methylalanine] were, in that order, 3.4e-06 M, 1.44e-09 M and 15.1 nM.
